Columns and labels:
ALK-wt = molecular target: T1, ALK-wt (Homo sapiens, UniProt Q9UM73); test: Biochemical kinase assay, ALK-wt kinase domain; settings: apparent inhibitory constant, Morrison equation; ATP 2 mM in substrate solution; read-out: ALK-wt Ki^app
T1 construct: purchased Carna 08-518
In short: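 Compound in DMSO added first, then substrate solution (ATP 2 mM; AQT0101 or AQT0104, 26 μM; pH 7.5 HEPES, 10 mM MgCl2), then kinase solution with enzyme at 0.5–3 nM depending on construct. Kinetic read every 2 min for 120 min at 30° C; Ki^app by Morrison regression.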

ALK L1196M/G1202R = molecular target: T2, ALK L1196M/G1202R (Homo sapiens, UniProt Q9UM73, G1202R/L1196M); test: Biochemical kinase assay, ALK L1196M/G1202R kinase domain; settings: apparent inhibitory constant, Morrison equation; ATP 2 mM in substrate solution; read-out: ALK-L1196M-G1202R Ki^app
T2 construct: purchased SignalChem A19-12NG
In short: (§1)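 Continuous fluorescence read (λ=485 nm, every 2 min, 120 min, 30° C). Substrate solution held 2 mM ATP and 26 μM AQT0101 (ROS1/ALK) or AQT0104 (TRKA). Kinase solution: ROS1-G2032R 0.5 nM, ROS1-wt 0.6 nM, TRKA 1 nM, ALK double mutant 3 nM. Initial linear rates fed a Morrison-equation fit giving Ki^app.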

ROS1-wt = molecular target: T3, ROS1-wt (Homo sapiens, UniProt P08922); test: Biochemical kinase assay, ROS1-wt kinase domain; settings: apparent inhibitory constant, Morrison equation; ATP 2 mM in substrate solution; read-out: ROS1-wt Ki^app
T3 construct: purchased Carna 08-163
In short: (§2)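 Kinetic read: 485 nm, 2-min intervals, 120 min, 30 °C. Substrate mix — ATP 2 mM, AQT0101 26 μM, HEPES 50 mM pH 7.5, MgCl2 10 mM. Output: Ki^app, Morrison equation.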

ROS1-G2032R = molecular target: T4, ROS1-G2032R (Homo sapiens, UniProt P08922, G2032R); test: Biochemical kinase assay, ROS1-G2032R kinase domain; settings: apparent inhibitory constant, Morrison equation; ATP 2 mM in substrate solution; read-out: ROS1-G2032R Ki^app
T4 construct: purchased SignalChem R14-12BG
In short: as §2

TRKA-wt = molecular target: T5, TRKA-wt (Homo sapiens, UniProt P04629); test: Biochemical kinase assay, TRKA-wt kinase domain; settings: apparent inhibitory constant, Morrison equation; ATP 2 mM in substrate solution; read-out: TRKA-wt Ki^app
T5 construct: or TRKA-wt (1 nM, BPS Bio, 40280) kinase domains in buffer; purchased BPS Bio 40280
In short: as §1

[1] = molecular target: T6, Ba/F3 cells CD74-ROS1 wild-type (wt) (Homo sapiens, UniProt P08922); test: Ba/F3 cell proliferation assay, CD74-ROS1 wild-type; assay type: cell-based; settings: 72 hours, CellTiter-Glo
T6 construct: fusion of the C-terminus of ROS1 with the N-terminus of various partner proteins; host or cells: Ba/F3 (RIKEN), retroviral pMSCV-puro; the other entry of the earlier key: CD74 (P04233, HLA class II histocompatibility antigen gamma chain)
In short: (§3)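 Cells seeded 1 day, then treated with 3-fold compound dilutions for 72 h; viability by CellTiter-Glo luminescence. IC50 from percent inhibition by four-parameter logistic fit.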

[2] = molecular target: T7, Ba/F3 cells CD74-ROS1 G2032R (Homo sapiens, UniProt P08922, G2032R); test: Ba/F3 cell proliferation assay, CD74-ROS1 G2032R; assay type: cell-based; settings: 72 hours, CellTiter-Glo
T7 construct: fusion of the C-terminus of ROS1 with the N-terminus of various partner proteins; host or cells: Ba/F3 (RIKEN), retroviral pMSCV-puro; the other entry of the earlier key: CD74 (P04233, HLA class II histocompatibility antigen gamma chain)
In short: as §3

[3] = molecular target: T8, Ba/F3 cells EML4-ALK wt (variant 1) (Homo sapiens, UniProt Q9UM73); test: Ba/F3 cell proliferation assay, EML4-ALK wt (variant 1); assay type: cell-based; settings: 72 hours, CellTiter-Glo
T8 construct: echinoderm microtubule-associated protein-like 4 (EML4) gene and the ALK tyrosine kinase domain; host or cells: Ba/F3 (RIKEN), retroviral pMSCV-puro; the other entry of the earlier key: EML4 (Q9HC35, Echinoderm microtubule-associated protein-like 4)
In short: (§4)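 IC50 values come from four-parameter logistic regression of CellTiter-Glo luminescence after 72 h exposure to 3-fold serial dilutions. Cells are Ba/F3 transformed by retroviral fusion-kinase constructs, grown without IL-3 under puromycin, plated at 1,000 per well a day before dosing.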

[4] = molecular target: T9, Ba/F3 cells EML4-ALK L1196M/G1202R (variant 1) (Homo sapiens, UniProt Q9UM73, G1202R/L1196M); test: Ba/F3 cell proliferation assay, EML4-ALK L1196M/G1202R (variant 1); assay type: cell-based; settings: 72 hours, CellTiter-Glo
T9 construct: echinoderm microtubule-associated protein-like 4 (EML4) gene and the ALK tyrosine kinase domain; host or cells: Ba/F3 (RIKEN), retroviral pMSCV-puro; the other entry of the earlier key: EML4 (Q9HC35, Echinoderm microtubule-associated protein-like 4)
In short: as §4

Ba/F3 cells TPM3-TRKA = molecular target: T10, Ba/F3 cells TPM3-TRKA (Homo sapiens, UniProt P04629); test: Ba/F3 cell proliferation assay, TPM3-TRKA; assay type: cell-based; settings: 72 hours, CellTiter-Glo, read-out: TPM3-NTRK1-wt IC50
T10 construct: host or cells: Ba/F3 (RIKEN), retroviral pMSCV-puro; the other entry of the earlier key: TPM3 (P06753, Tropomyosin alpha-3 chain)
In short: as §4

[5] = tested on: TPM3-NTRK1-wt IC50 / primary target IC50 (e.g. CD74-ROS1-wt); test: TRKA selectivity in Ba/F3 cells (TRKA potency divided by primary target potency); assay type: cell-based; settings: for TPM3-NTRK1-wt/CD74-ROS1-G2032R selectivity ratio: TRKA potency / CD74-ROS1-G2032R potency; for TPM3-NTRK1-wt/CD74-ROS1-wt selectivity ratio: TRKA potency / CD74-ROS1-wt potency; for TPM3-NTRK1-wt/EML4-ALK-L1196M-G1202R selectivity ratio: TRKA potency / EML4-ALK-L1196M-G1202R potency; for TPM3-NTRK1-wt/EML4-ALK-wt selectivity ratio: TRKA potency / EML4-ALK-wt potency
Protocol: TRKA selectivity was calculated by dividing a compound's TRKA potency by its primary target potency (e.g. TPM3-NTRK1-wt IC50/CD74-ROS1-wt IC50). Compound selectivity can be interpreted by binning ratio values: bin A for very high selectivity, ratio >30-fold; bin B for high selectivity, ratio >10-fold; bin C for moderate selectivity, ratio ≥1; and bin D for low selectivity, ratio <1. […] (nd=not determined).

T7 sequence (P08922 1883-2347 G2032R limits assumed): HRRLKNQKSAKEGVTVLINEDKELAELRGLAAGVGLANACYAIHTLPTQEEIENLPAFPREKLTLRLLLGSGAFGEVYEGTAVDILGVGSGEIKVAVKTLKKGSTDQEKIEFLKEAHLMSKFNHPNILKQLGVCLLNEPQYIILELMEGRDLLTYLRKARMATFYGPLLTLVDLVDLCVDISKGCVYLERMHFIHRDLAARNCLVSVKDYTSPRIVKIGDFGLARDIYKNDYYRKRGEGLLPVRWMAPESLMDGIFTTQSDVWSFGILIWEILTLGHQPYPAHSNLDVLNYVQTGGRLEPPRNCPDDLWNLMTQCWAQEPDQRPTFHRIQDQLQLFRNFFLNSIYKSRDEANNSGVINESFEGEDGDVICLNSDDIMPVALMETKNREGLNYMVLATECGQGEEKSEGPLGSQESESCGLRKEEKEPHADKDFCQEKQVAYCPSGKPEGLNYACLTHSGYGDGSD
T9 sequence (Q9UM73 with tags, fused parts or gaps L1196M/G1202R): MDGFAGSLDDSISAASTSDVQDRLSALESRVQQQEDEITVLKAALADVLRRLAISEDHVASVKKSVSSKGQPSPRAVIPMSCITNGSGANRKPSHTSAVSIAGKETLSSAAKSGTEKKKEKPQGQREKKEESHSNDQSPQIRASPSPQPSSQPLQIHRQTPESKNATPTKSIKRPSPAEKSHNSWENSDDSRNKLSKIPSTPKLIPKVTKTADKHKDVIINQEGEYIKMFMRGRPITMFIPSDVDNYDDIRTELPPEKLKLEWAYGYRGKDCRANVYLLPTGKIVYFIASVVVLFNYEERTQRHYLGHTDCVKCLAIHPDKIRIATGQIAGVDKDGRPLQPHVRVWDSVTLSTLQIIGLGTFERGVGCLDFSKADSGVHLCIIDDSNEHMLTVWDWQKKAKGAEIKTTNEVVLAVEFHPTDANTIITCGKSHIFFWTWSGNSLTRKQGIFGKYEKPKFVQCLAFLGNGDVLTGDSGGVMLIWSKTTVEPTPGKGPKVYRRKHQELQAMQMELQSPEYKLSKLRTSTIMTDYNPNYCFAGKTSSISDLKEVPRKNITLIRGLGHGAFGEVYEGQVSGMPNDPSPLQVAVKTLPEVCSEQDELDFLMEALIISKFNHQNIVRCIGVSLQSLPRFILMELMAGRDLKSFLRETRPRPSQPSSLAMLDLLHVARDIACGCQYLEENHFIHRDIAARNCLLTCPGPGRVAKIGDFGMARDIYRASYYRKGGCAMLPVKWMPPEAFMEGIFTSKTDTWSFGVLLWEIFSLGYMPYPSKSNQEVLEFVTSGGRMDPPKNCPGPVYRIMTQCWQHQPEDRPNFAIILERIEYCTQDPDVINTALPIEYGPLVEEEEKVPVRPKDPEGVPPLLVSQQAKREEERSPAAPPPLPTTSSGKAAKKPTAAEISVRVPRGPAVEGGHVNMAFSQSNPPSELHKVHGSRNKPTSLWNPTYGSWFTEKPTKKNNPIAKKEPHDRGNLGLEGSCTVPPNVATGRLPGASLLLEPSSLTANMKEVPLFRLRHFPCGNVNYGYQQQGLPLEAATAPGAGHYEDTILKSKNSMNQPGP
T3 sequence (P08922 1945-2222 limits assumed): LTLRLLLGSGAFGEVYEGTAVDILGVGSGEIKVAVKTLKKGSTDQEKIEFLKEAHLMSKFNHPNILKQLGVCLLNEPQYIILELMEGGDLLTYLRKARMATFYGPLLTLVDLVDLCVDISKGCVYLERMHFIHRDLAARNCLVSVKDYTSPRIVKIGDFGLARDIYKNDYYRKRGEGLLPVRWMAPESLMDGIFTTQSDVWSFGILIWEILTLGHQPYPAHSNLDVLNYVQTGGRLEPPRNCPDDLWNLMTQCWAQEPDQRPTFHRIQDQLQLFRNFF
T5 sequence (P04629 510-781 limits assumed): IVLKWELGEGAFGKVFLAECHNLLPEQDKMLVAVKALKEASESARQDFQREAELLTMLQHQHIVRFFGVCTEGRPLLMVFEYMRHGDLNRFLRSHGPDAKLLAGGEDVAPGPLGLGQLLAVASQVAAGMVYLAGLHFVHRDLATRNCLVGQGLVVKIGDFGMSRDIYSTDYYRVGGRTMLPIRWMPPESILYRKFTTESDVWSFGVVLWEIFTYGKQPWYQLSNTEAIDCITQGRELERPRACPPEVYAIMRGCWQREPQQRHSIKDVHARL
T8 sequence (Q9UM73 with tags, fused parts or gaps): as the sequence (Q9UM73 with tags, fused parts or gaps L1196M/G1202R) above, with M635L, R641G counted along it
T4 sequence (P08922 1945-2222 G2032R limits assumed): as the sequence (P08922 1945-2222 limits assumed) above, with G88R counted along it
T10 sequence (P04629 510-796 limits assumed): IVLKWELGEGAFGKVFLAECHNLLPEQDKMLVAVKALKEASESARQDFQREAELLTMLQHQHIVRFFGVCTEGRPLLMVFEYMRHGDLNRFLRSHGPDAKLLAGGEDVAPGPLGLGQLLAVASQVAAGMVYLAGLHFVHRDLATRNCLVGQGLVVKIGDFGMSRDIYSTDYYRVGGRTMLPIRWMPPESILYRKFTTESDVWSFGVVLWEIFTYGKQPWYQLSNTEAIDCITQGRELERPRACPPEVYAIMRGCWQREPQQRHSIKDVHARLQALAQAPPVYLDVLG
T6 sequence (P08922 1883-2347 limits assumed): as the sequence (P08922 1883-2347 G2032R limits assumed) above, with R150G counted along it
T2 sequence (Q9UM73 1116-1392 L1196M/G1202R limits assumed): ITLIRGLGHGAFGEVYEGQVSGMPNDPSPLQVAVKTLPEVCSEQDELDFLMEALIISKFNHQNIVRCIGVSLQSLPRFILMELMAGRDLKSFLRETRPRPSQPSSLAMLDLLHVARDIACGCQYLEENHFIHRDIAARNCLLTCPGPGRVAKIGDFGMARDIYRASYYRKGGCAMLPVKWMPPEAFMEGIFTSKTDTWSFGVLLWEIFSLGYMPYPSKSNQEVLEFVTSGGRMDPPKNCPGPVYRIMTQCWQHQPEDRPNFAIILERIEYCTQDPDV
T1 sequence (Q9UM73 1116-1392 limits assumed): as the sequence (Q9UM73 1116-1392 L1196M/G1202R limits assumed) above, with M81L, R87G counted along it

Structure (SMILES)	Ki (ALK-wt) [nM]	Ki (ALK L1196M/G1202R) [nM]	Ki (ROS1-wt) [nM]	Ki (ROS1-G2032R) [nM]	Ki (TRKA-wt) [nM]	IC50 [1] [nM]	IC50 [2] [nM]	IC50 [3] [nM]	IC50 [4] [nM]	IC50 (Ba/F3 cells TPM3-TRKA) [nM]	TPM3-NTRK1-wt/CD74-ROS1-G2032R selectivity ratio [5]	TPM3-NTRK1-wt/CD74-ROS1-wt selectivity ratio [5]	TPM3-NTRK1-wt/EML4-ALK-L1196M-G1202R selectivity ratio [5]	TPM3-NTRK1-wt/EML4-ALK-wt selectivity ratio [5]
Cc1nn(CC(C)C)c2c1Cn1ncnc1-c1ccc(F)cc1[C@@H](C)Oc1cc-2cnc1N [Example 79, (19R)-16-fluoro-5,19-dimethyl-3-(2-methylpropyl)-20-oxa-3,4,8,9,11,23-hexaazapentacyclo [19.3.1.0^2,^6.0^8,^12.0^13,^18]pentacosa-1(2.4),2(6),4,9,11,13,15,17,21(25),22-decaen-22-amine]	< 50	50 to 500	< 50	> 500	> 500	0.1 to 50	> 500	0.1 to 50	> 500	> 500	B (bin B for high selectivity, ratio >10-fold)	A (bin A for very high selectivity, ratio >30-fold)	C (bin C for moderate selectivity, ratio ≥1)	A (bin A for very high selectivity, ratio >30-fold)
C[C@H]1Oc2cc(cnc2N)-c2c(cnn2C2CCC2)Cn2ncc(C#N)c2-c2ccc(F)cc21 [Example 10, (19R)-22-amino-3-cyclobutyl-16-fluoro-19-methyl-20-oxa-3,4,8,9,23-pentaazapentacyclo[19.3.1.0^2,^6.0^8,^12.0^13,^18]pentacosa-1(24),2(6),4,9,11,13,15,1 7,21(25),22-decaene-11-carbonitrile]	< 50	< 50	< 50	< 50	> 500	0.1 to 50	0.1 to 50	0.1 to 50	50 to 500	> 500	A (bin A for very high selectivity, ratio >30-fold)	A (bin A for very high selectivity, ratio >30-fold)	B (bin B for high selectivity, ratio >10-fold)	A (bin A for very high selectivity, ratio >30-fold)
CCn1ncc2c1-c1cnc(N)c(c1)O[C@H](C)c1cc(F)ccc1-n1nc(C)nc1C2 [Example 40, (19R)-3-ethyl-16-fluoro-10,19-dimethyl-20-oxa-3,4,9,11,12,23-hexaazapentacyclo[19.3.1.0^2,^6.0^8,^12.0^13,^18] pentacosa 1(24),2(6),4,8,10,13,15,17,21(25),22-decaen-22-amine]	< 50	< 50	< 50	< 50	50 to 500	0.1 to 50	0.1 to 50	0.1 to 50	50 to 500	50 to 500	A (bin A for very high selectivity, ratio >30-fold)	A (bin A for very high selectivity, ratio >30-fold)	C (bin C for moderate selectivity, ratio ≥1)	B (bin B for high selectivity, ratio >10-fold)

The next lines start with results.

Ki (ALK-wt) [nM]	Ki (ALK L1196M/G1202R) [nM]	Ki (ROS1-wt) [nM]	Ki (ROS1-G2032R) [nM]	Ki (TRKA-wt) [nM]	IC50 [1] [nM]	IC50 [2] [nM]	IC50 [3] [nM]	IC50 [4] [nM]	IC50 (Ba/F3 cells TPM3-TRKA) [nM]	Structure (SMILES)	TPM3-NTRK1-wt/CD74-ROS1-G2032R selectivity ratio [5]	TPM3-NTRK1-wt/CD74-ROS1-wt selectivity ratio [5]	TPM3-NTRK1-wt/EML4-ALK-L1196M-G1202R selectivity ratio [5]	TPM3-NTRK1-wt/EML4-ALK-wt selectivity ratio [5]
< 50	50 to 500	< 50	50 to 500	> 500	0.1 to 50	0.1 to 50	50 to 500	> 500	> 500	C[C@H]1Oc2cc(cnc2N)-c2c(C#N)noc2Cc2nn(C)nc2-c2ccc(F)cc21 [Example 25, (19R)-22-amino-16-fluoro-10,19-dimethyl-5,20-dioxa-4,9,10,11,23-pentaazapentacyclo[19.3,1.0^2,^6.0^8,^12.0^13,^18]pentacosa-1(24),2(6),3,8,11,13,15,17,21(25),22-decaene-3-carbonitrile]	A (bin A for very high selectivity, ratio >30-fold)	A (bin A for very high selectivity, ratio >30-fold)	C (bin C for moderate selectivity, ratio ≥1)	A (bin A for very high selectivity, ratio >30-fold)
< 50	< 50	< 50	< 50	50 to 500	0.1 to 50	0.1 to 50	0.1 to 50	50 to 500	50 to 500	CCc1noc2c1-c1cnc(N)c(c1)O[C@H](C)c1cc(F)ccc1-c1cn(C)nc1C2 [Example 23, (19R)-3ethyl-16-fluoro-10,19-dimethyl-5,20-dioxa-4,9,10,23-tetraazapentacyclo[19.3.1.0^2,^6.0^8,^12.0^13,^18]pentacosa-1(24),2(6),3,8,11,13,15,17,21(25),22-decaen-22-amine]	A (bin A for very high selectivity, ratio >30-fold)	A (bin A for very high selectivity, ratio >30-fold)	C (bin C for moderate selectivity, ratio ≥1)	B (bin B for high selectivity, ratio >10-fold)
< 50	< 50	< 50	50 to 500	50 to 500	0.1 to 50	0.1 to 50	0.1 to 50	50 to 500	> 500	CCc1noc2c1-c1cnc(N)c(c1)O[C@H](C)c1cc(F)ccc1-c1ncnn1C2 [Example 50, (19R)-3-ethyl-16-fluoro-19-methyl-5,20-dioxa-4,8,9,11,23-pentaazapentacyclo[19.3.1.0^2,^6.0^8,^12.0^13,^18]pentacosa-1(24),2(6),3,9,11,13,15,17,21(25),22-decaen-22-amine]	B (bin B for high selectivity, ratio >10-fold)	A (bin A for very high selectivity, ratio >30-fold)	C (bin C for moderate selectivity, ratio ≥1)	A (bin A for very high selectivity, ratio >30-fold)

Reference: US12054498B2, “Heteroaromatic macrocyclic ether chemotherapeutic agents” (Nuvalent, Inc., priority 2020, dated 2024)
